{"source": "patent US6362192B1", "about": "“2-(Pyrazolyloxy) -pyridin-3-ylacetic acid derivatives, agents containing the same and use thereof against noxious fungi and animal parasites” (BASF Aktiengesellschaft, priority 1998, dated 2002)", "assay_type_in_all_cases": "in vivo", "key": {"[1]": {"test_system": "Erysiphe graminis forma specialis tritici", "assay": "Protective activity against Erysiphe graminis var. tritici (powdery mildew of wheat)", "conditions": "16 ppm, sprayed 24 h before inoculation, seedlings cv. Frühgold, assessed after 7 days; untreated control 80%", "protocol": "1) Protective Activity Against Erysiphe graminis var. tritici (Powdery Mildew of Wheat) Leaves of potted […] seedlings cv. “Frühgold” were sprayed to runoff point with an aqueous active compound preparation which had been prepared from a stock solution comprising 10% of active compound, 63% of cyclohexanone and 27% of emulsifier, and, 24 hours after the spray coating had dried on, dusted with spores of powdery mildew of wheat (Erysiphe graminis forma specialis tritici). The test plants were subsequently placed in a greenhouse at from 20 to 22° C. and a relative atmospheric humidity of 75 to 80%. After 7 days, the extent of mildew development was determined visually as % infection of the total leaf area."}, "Plasmopara viticola": {"test_system": "Plasmopara viticola", "assay": "Long-term activity against Plasmopara viticola on grapevines", "conditions": "16 ppm, grapevines cv. Müller-Thurgau, inoculated 7 days after spraying; untreated control 75%", "from_the_text": "2) Long-term Activity Against Plasmopara viticola Leaves of potted grapevines cv. “Müller-Thurgau” were sprayed to runoff point with an aqueous active compound preparation which had been prepared from a stock solution comprising 10% of active compound, 63% of cyclohexanone and 27% of emulsifier. To assess the persistency of the substances, the plants were kept for 7 days in a greenhouse after the spray coating had dried on. Only then were the leaves inoculated with an aqueous zoospore suspension of Plasmopara viticola. The grapevines were then initially kept in a water vapor-saturated chamber at 24° C. for 48 hours and then in a greenhouse at 20-30° C. for 5 days. After this period of time, the plants were once more kept in a humid chamber for 16 hours to promote sporangiophore eruption. The extent of the infection on the undersides of the leaves was then assessed visually."}, "pyricularia oryzae": {"test_system": "pyricularia oryzae", "conditions": "16 ppm, rice seedlings cv. Tai-Nong 67, inoculated the next day, assessed after 6 days; untreated control 85%"}}, "data": [{"molecule": "CO/C=C(/C(=O)OC)c1cccnc1Oc1ccn(-c2ccc(Cl)cc2)n1", "note": "[I.3, Methyl methoxy-[2-(1-(4-chlorophenyl)-3-pyrazolyloxy)pyridin-3-yl]acrylate]", "values": [{"measurement": "infection (mildew development as % infection of the total leaf area)", "setting": "[1]", "result": 5, "unit": "%"}, {"measurement": "infection on the undersides of the leaves", "setting": "Plasmopara viticola", "result": "no infestation"}, {"measurement": "infestation on the leaves", "setting": "pyricularia oryzae", "result": 15, "unit": "%"}]}]}
